This assay deals with PD-1/PD-L1 (Homo sapiens (Human), UniProt Q9NZQ7). The assay is described as follows: PD-1/PD-L1 Homogeneous Time-Resolved Fluorescence (HTRF) Binding Assay. To be noted: recombinant human PD-1 (3 nM) and PD-L1 (10 nM), 25° C., PBS pH 7.4. The procedure: Example A. PD-1/PD-L1 Homogeneous Time-Resolved Fluorescence (HTRF) Binding Assay
The assays were conducted in a standard black 384-well polystyrene plate with a final volume of 20 μL. Inhibitors were first serially diluted in DMSO and then added to the plate wells before the addition of other reaction components. The final concentration of DMSO in the assay was 1%. The assays were carried out at 25° C. in the PBS buffer (pH 7.4) with 0.05% Tween-20 and 0.1% BSA. Recombinant human PD-L1 protein (19-238) with a His-tag at the C-terminus was purchased from AcroBiosystems (PD1-H5229). Recombinant human PD-1 protein (25-167) with Fc tag at the C-terminus was also purchased from AcroBiosystems (PD1-H5257). PD-L1 and PD-1 proteins were diluted in the assay buffer and 10 μL was added to the plate well. Plates were centrifuged and proteins were preincubated with inhibitors for 40 minutes. The incubation was followed by the addition of 10 μL of HTRF detection buffer supplemented with Europium cryptate-labeled anti-human IgG (PerkinElmer-AD0212) specific for Fc and anti-His antibody conjugated to SureLight®-Allophycocyanin (APC, PerkinElmer-AD0059H). After centrifugation, the plate was incubated at 25° C. for 60 min. before reading on a PHERAstar FS plate reader (665 nm/620 nm ratio). Final concentrations in the assay were—3 nM PD1, 10 nM PD-L1, 1 nM europium anti-human IgG and 20 nM anti-His-Allophycocyanin. IC50 determination was performed by fitting the curve of percent control activity versus the log of the inhibitor concentration using the GraphPad Prism 5.0 software.
(In general: In TR-FRET formats the signal depends on donor and acceptor labels being close together.)

Usually IC50 stands for the concentration that inhibits the measured activity by half.

Sequence of PD-1/PD-L1 (Q9NZQ7 19-238): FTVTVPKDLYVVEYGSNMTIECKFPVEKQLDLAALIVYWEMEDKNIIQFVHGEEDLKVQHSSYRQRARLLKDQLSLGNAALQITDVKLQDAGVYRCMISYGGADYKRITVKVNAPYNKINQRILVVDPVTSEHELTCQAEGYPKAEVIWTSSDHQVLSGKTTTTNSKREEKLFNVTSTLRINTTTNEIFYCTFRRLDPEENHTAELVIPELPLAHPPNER

For the compound `Cc1c(Nc2nccc3cc(CN4CC[C@@H](O)C4)cnc23)cccc1-c1cccc(-c2nc3cc(CN4CC[C@H](C(=O)O)C4)cc(Cl)c3o2)c1C` [Example 19, (S)-1-((7-chloro-2-(3′-(3-(((R)-3-hydroxypyrrolidin-1-yl)methyl)-1,7-naphthyridin-8-ylamino)-2,2′-dimethylbiphenyl-3-yl)benzo[d]oxazol-5-yl)methyl)pyrrolidine-3-carboxylic acid], the IC50 was at most 10 nM. The value for `Cc1c(Nc2nccc3cc(CN4CC[C@H](O)C4)cnc23)cccc1-c1cccc(-c2nc3cc(CNCCC(=O)O)cc(Cl)c3o2)c1C` [Example 20, (S)-3-((7-chloro-2-(3′-(3-((3-hydroxypyrrolidin-1-yl)methyl)-1,7-naphthyridin-8-ylamino)-2,2′-dimethylbiphenyl-3-yl)benzo[d]oxazol-5-yl)methylamino)propanoic acid] was at most 10 nM; that for `Cc1c(Nc2nccc3cc(CN4CC[C@H](O)C4)cnc23)cccc1-c1cccc(-c2nc3cc(CN(C)CCC(=O)O)cc(Cl)c3o2)c1C` [Example 21, (S)-3-(((7-chloro-2-(3′-(3-((3-hydroxypyrrolidin-1-yl)methyl)-1,7-naphthyridin-8-ylamino)-2,2′-dimethylbiphenyl-3-yl)benzo[d]oxazol-5-yl)methyl)(methyl)amino)propanoic acid] was at most 10 nM. The value for `Cc1c(Nc2nccc3cc(CN4CC[C@H](O)C4)cnc23)cccc1-c1cccc(-c2nc3cc(CN4CCC(C(=O)O)CC4)cc(Cl)c3o2)c1C` [Example 22, (S)-1-((7-chloro-2-(3′-(3-((3-hydroxypyrrolidin-1-yl)methyl)-1,7-naphthyridin-8-ylamino)-2,2′-dimethylbiphenyl-3-yl)benzo[d]oxazol-5-yl)methyl)piperidine-4-carboxylic acid] was at most 10 nM.

For `Cc1c(Nc2nccc3cc(CN4CC[C@H](O)C4)cnc23)cccc1-c1cccc(-c2nc3cc(CN4CC(C(=O)O)C4)cc(Cl)c3o2)c1C` [Example 23, (S)-1-((7-chloro-2-(3′-(3-((3-hydroxypyrrolidin-1-yl)methyl)-1,7-naphthyridin-8-ylamino)-2,2′-dimethylbiphenyl-3-yl)benzo[d]oxazol-5-yl)methyl)azetidine-3-carboxylic acid], the IC50 was at most 10 nM. Then `Cc1c(Nc2nccc3cc(CN4CC[C@@H](O)C4)cnc23)cccc1-c1cccc(-c2nc3cc(CN4CC[C@@H](C(=O)O)C4)cc(C#N)c3o2)c1C` [Example 24, (R)-1-((7-cyano-2-(3′-(3-(((R)-3-hydroxypyrrolidin-1-yl)methyl)-1,7-naphthyridin-8-ylamino)-2,2′-dimethylbiphenyl-3-yl)benzo[d]oxazol-5-yl)methyl)pyrrolidine-3-carboxylic acid], with at most 10 nM.

Regarding `Cc1c(Nc2nccc3cc(CN4CC[C@H](O)C4)cnc23)cccc1-c1cccc(-c2nc3cc(CN4CC[C@H](C(=O)O)C4)cc(C#N)c3o2)c1C` [Example 25, (S)-1-((7-cyano-2-(3′-(3-(((S)-3-hydroxypyrrolidin-1-yl)methyl)-1,7-naphthyridin-8-ylamino)-2,2′-dimethylbiphenyl-3-yl)benzo[d]oxazol-5-yl)methyl)pyrrolidine-3-carboxylic acid], the half-inhibitory concentration (IC50) was at most 10 nM. The value for `Cc1c(Nc2nccc3cc(CN4CC[C@H](O)C4)cnc23)cccc1-c1cccc(-c2nc3cc(CN4CC[C@@H](C(=O)O)C4)cc(C#N)c3o2)c1C` [Example 26, (R)-1-((7-cyano-2-(3′-(3-(((S)-3-hydroxypyrrolidin-1-yl)methyl)-1,7-naphthyridin-8-ylamino)-2,2′-dimethylbiphenyl-3-yl)benzo[d]oxazol-5-yl)methyl)pyrrolidine-3-carboxylic acid] was at most 10 nM. Then `Cc1c(Nc2nccc3cc(CN4CC[C@H](O)C4)cnc23)cccc1-c1cccc(-c2nc3cc(CN4CCCC[C@H]4C(=O)O)cc(C#N)c3o2)c1C` [Example 27, (S)-1-((7-cyano-2-(3′-(3-(((S)-3-hydroxypyrrolidin-1-yl)methyl)-1,7-naphthyridin-8-ylamino)-2,2′-dimethylbiphenyl-3-yl)benzo[d]oxazol-5-yl)methyl)piperidine-2-carboxylic acid], with at most 10 nM; and `Cc1c(Nc2nccc3cc(CN4CC[C@@H](O)C4)cnc23)cccc1-c1cccc(-c2nc3cc(CN4CC[C@H](C(=O)O)C4)cc(C#N)c3o2)c1C` [Example 28, (S)-1-((7-cyano-2-(3′-(3-(((R)-3-hydroxypyrrolidin-1-yl)methyl)-1,7-naphthyridin-8-ylamino)-2,2′-dimethylbiphenyl-3-yl)benzo[d]oxazol-5-yl)methyl)pyrrolidine-3-carboxylic acid], with at most 10 nM; and `Cc1c(-c2nc3cc(CN4CC[C@@H](C(=O)O)C4)cc(Cl)c3o2)cccc1-c1cccc(Nc2nccc3cc(CN4CC[C@H](O)C4)cnc23)c1Cl` [Example 29, (R)-1-((7-chloro-2-(2′-chloro-3′-(3-(((S)-3-hydroxypyrrolidin-1-yl)methyl)-1,7-naphthyridin-8-ylamino)-2-methylbiphenyl-3-yl)benzo[d]oxazol-5-yl)methyl)pyrrolidine-3-carboxylic acid], with at most 10 nM.

For the compound `Cc1c(-c2nc3cc(CN4CC[C@@H](C(=O)O)C4)cc(C#N)c3o2)cccc1-c1cccc(Nc2nccc3cc(CN4CC[C@H](O)C4)cnc23)c1Cl` [Example 30, (R)-1-((2-(2′-chloro-3′-(3-(((S)-3-hydroxypyrrolidin-1-yl)methyl)-1,7-naphthyridin-8-ylamino)-2-methylbiphenyl-3-yl)-7-cyanobenzo[d]oxazol-5-yl)methyl)pyrrolidine-3-carboxylic acid], the IC50 was at most 10 nM. The value for `Cc1c(-c2nc3cc(CN4CC[C@@H](C(=O)O)C4)cc(C#N)c3o2)cccc1-c1cccc(Nc2nccc3cc(CN4CCOC4=O)cnc23)c1Cl` [Example 31, (R)-1-((2-(2′-chloro-2-methyl-3′-(3-((2-oxooxazolidin-3-yl)methyl)-1,7-naphthyridin-8-ylamino)biphenyl-3-yl)-7-cyanobenzo[d]oxazol-5-yl)methyl)pyrrolidine-3-carboxylic acid] was at most 10 nM. Then `Cc1c(-c2nc3cc(CN4CC[C@H](C(=O)O)C4)cc(Cl)c3o2)cccc1-c1cccc(Nc2nccc3cc(CN4CC[C@H](O)C4)cnc23)c1Cl` [Example 32, (S)-1-((7-chloro-2-(2′-chloro-3′-(3-(((S)-3-hydroxypyrrolidin-1-yl)methyl)-1,7-naphthyridin-8-ylamino)-2-methylbiphenyl-3-yl)benzo[d]oxazol-5-yl)methyl)pyrrolidine-3-carboxylic acid], with at most 10 nM; and `Cc1c(-c2nc3cc(CN4CC[C@H](C(=O)O)C4)cc(C#N)c3o2)cccc1-c1cccc(Nc2nccc3cc(CN4CC[C@H](O)C4)cnc23)c1Cl` [Example 33, (S)-1-((2-(2′-chloro-3′-(3-(((S)-3-hydroxypyrrolidin-1-yl)methyl)-1,7-naphthyridin-8-ylamino)-2-methylbiphenyl-3-yl)-7-cyanobenzo[d]oxazol-5-yl)methyl)pyrrolidine-3-carboxylic acid], with at most 10 nM; and `Cc1c(-c2nc3cc(CN4CC[C@@](C)(C(=O)O)C4)cc(C#N)c3o2)cccc1-c1cccc(Nc2nccc3cc(CN4CC[C@H](O)C4)cnc23)c1Cl` [Example 34, (R)-1-((2-(2′-chloro-3′-(3-(((S)-3-hydroxypyrrolidin-1-yl)methyl)-1,7-naphthyridin-8-ylamino)-2-methylbiphenyl-3-yl)-7-cyanobenzo[d]oxazol-5-yl)methyl)-3-methylpyrrolidine-3-carboxylic acid], with at most 10 nM. The value for `Cc1c(Nc2nccc3cc(CN4CC[C@H](O)C4)cnc23)cccc1-c1cccc(-c2nc3cc(CN4CCC[C@H]4C(=O)O)cc(C#N)c3o2)c1C` [Example 35, (S)-1-((7-cyano-2-(3′-(3-(((S)-3-hydroxypyrrolidin-1-yl)methyl)-1,7-naphthyridin-8-ylamino)-2,2′-dimethylbiphenyl-3-yl)benzo[d]oxazol-5-yl)methyl)pyrrolidine-2-carboxylic acid] was at most 10 nM; that for `Cc1c(NC(=O)c2nc3c(n2C)CCN(C)C3)cccc1-c1cccc(-c2nc3cc(CN4CC[C@H](C(=O)O)C4)cc(C#N)c3o2)c1C` [Example 36, (S)-1-((7-cyano-2-(3′-(1,5-dimethyl-4,5,6,7-tetrahydro-1H-imidazo[4,5-c]pyridine-2-carboxamido)-2,2′-dimethylbiphenyl-3-yl)benzo[d]oxazol-5-yl)methyl)pyrrolidine-3-carboxylic acid] was at most 10 nM; that for `CCN1CCc2c(nc(C(=O)Nc3cccc(-c4cccc(-c5nc6cc(CN7CC[C@H](C(=O)O)C7)cc(C#N)c6o5)c4C)c3C)n2C)C1` [Example 37, (S)-1-((7-cyano-2-(3′-(5-ethyl-1-methyl-4,5,6,7-tetrahydro-1H-imidazo[4,5-c]pyridine-2-carboxamido)-2,2′-dimethylbiphenyl-3-yl)benzo[d]oxazol-5-yl)methyl)pyrrolidine-3-carboxylic acid] was at most 10 nM.

The record behind these values is US10308644B2, “Heterocyclic compounds as immunomodulators” (Incyte Corporation, priority 2016, dated 2019).
